Data published in patent US20120245180A1, “COMBINATION” (GlaxoSmithKline LLC, priority 2009, published 2012).
Like-named read-outs stand apart in the source and are kept apart here. Each block holds one compound with its values, some of them ahead of it.

What was measured:
Test in all cases: Cell growth inhibition assay, breast tumor cell line (Cell Titer Glo)
Format in all cases: cell-based
ZR-75-1 = conditions: Homo sapiens, 72 h, ZR-75-1 (HER2−), 3 days
Experimental: (§1) Human tumor cell lines from hepatocellular carcinoma (HCC), C3A, Hep3B, HepG2, PLC/PRF/5, SNU182, SNU387, SNU398, SNU423, SNU449 and SNU475 were purchased from the ATCC. Human breast tumor cell lines, HCC2218, HCC1419, BT-474, SK-BR-3, UACC893, JIMT-1, MDA-MB-361, HCC202, MDA-MB-175-VII, HCC1569, HCC1937, HCC38, MDA-MB-157, HCC1954, HCC1500, BT483, KPL-1, SUM225 and ZR-75-1 from ATCC, SUM52 and SUM190 from Asterand, PLC (Detroit Mich.), were cultured in RPMI 1640 medium containing 10% FBS; SKBR3-W13 and BT-474-J4 cultured in RPMI 1640 medium containing 10% FBS and 1 μM lapatinib; KPL4 line was kindly provided by Dr Junichi Kurebayashi (Kawasaki Medical School, Okayama, Japan) and cultured in DMEM containing 5% FBS. JIMT-1 from European Collection of Cell Cultures (UK), is a line derived from a patient clinically resistant to trastuzumab (Herceptin®). SK-BR-3-W13 is a single cell clone isolated by a cloning cylinder after a single treatment of SK-BR-3 cells with 0.5 μM lapatinib. BT-474-J4 is a single cell clone derived from a pool of BT-474 cells that were selected to grow in lapatinib to a concentration of 3 μM.
(§2) Cells were seeded in a 96-well tissue culture plate (NUNC 136102) of RPMI medium containing 10% FBS at 500-2,000 cells per well. Approximately 24 hours after plating, cells were exposed to ten, two-fold or three-fold serial dilutions of either Compound A or B or the combination of the two agents at a 2:1 molar ratio (Compounds A and B respectively). In some cases, cells were grown in RPMI media containing 10% FBS and in the presence or absence of 2 ng/mL hepatocyte growth factor (HGF). Cells were incubated in the presence of compounds for 3 days. ATP levels were determined by adding Cell Titer Glo® (Promega) according to the manufacturer's protocol. Briefly, Cell Titer Glo® was added to each plate, incubated for 20 minutes then luminescent signal was read on the SpectraMax L plate reader with a 0.5 sec integration time. All assays were run at least in duplicate.
(§3) Inhibition of cell growth was estimated after treatment with compound or combination of compounds for three days and comparing the signal to cells treated with vehicle (DMSO). Cell growth was calculated relative to vehicle (DMSO) treated control wells. Concentration of compound that inhibits 50% of control cell growth (IC50) was back-interpolated when y=50% of DMSO treated control wells using nonlinear regression with the equation: […]
(§4) where A is the minimum response (ymin), B is the maximum response (Ymax), C is the inflection point of the curve (EC50) and D is the Hill coefficient.
(§5) Combination effects on potency were evaluated using the Combination Index (CI) and Excess Over Highest Single Agent (EHOSA) methods.
(§6) DNA Copy number data on the HER2 gene was collected for all breast cancer cell lines using the Affymetrix 500K chip (Affymetrix Inc, Sunnyvale, Calif.). Briefly DNA was extracted from each line, digested with the restriction enzyme Nsp or Sty, ligated to an adaptor and amplified by PCR. After PCR, DNA was fragmented, labeled, denatured, and hybridized to the Affymetrix 500K chip. Upon completion of hybridization, each assay was washed and stained. Image data were acquired. Similarly collected data from a panel 10 diploid non-tumorigenic lymphoblastic cell lines were used to calculate DNA copy number. All ‘SNP Chip’ images ('CEL files'), were extracted, read and normalized using the dChip software package (Lin et al. 2004. Bioinformatics. 20:1233-40). SNP-wise ‘copy-number ratios’ (log2 scale) were calculated for all cancer cell lines using the lymphoblastic reference panel and analyzed by circular binary segmentation to reduce noise (Olshen et al. 2004. Biostatistics. 5:557-72). Cell lines with log2 ratios of HER2>0.65 were considered HER2+.

HCC1954 = conditions: Homo sapiens, 72 h, HCC1954 (HER2+), 3 days
Experimental: as §1, §2, §3, §4, §5, §6

BT474-J4 = conditions: Homo sapiens, 72 h, BT474-J4 (HER2+), 3 days
Experimental: as §1, §2, §3, §4, §5, §6

SUM52 = conditions: Homo sapiens, 72 h, SUM52 (HER2−), 3 days
Experimental: as §1, §2, §3, §4, §5, §6

JIMT-1 = conditions: Homo sapiens, 72 h, JIMT-1 (HER2+), 3 days
Experimental: as §1, §2, §3, §4, §5, §6

UACC893 = conditions: Homo sapiens, UACC-893, 72 h, UACC893 (HER2+), 3 days
Experimental: as §1, §2, §3, §4, §5, §6

HCC202 = conditions: Homo sapiens, 72 h, HCC202 (HER2+), 3 days
Experimental: as §1, §2, §3, §4, §5, §6

HCC1419 = conditions: Homo sapiens, 72 h, HCC1419 (HER2+), 3 days
Experimental: as §1, §2, §3, §4, §5, §6

HCC2218 = conditions: Homo sapiens, 72 h, HCC2218 (HER2+), 3 days
Experimental: as §1, §2, §3, §4, §5, §6

SK-BR-3 = conditions: Homo sapiens, 72 h, SK-BR-3 (HER2+), 3 days
Experimental: as §1, §2, §3, §4, §5, §6

KPL1 = conditions: Homo sapiens, KPL-1, 72 h, KPL1 (HER2−), 3 days
Experimental: as §1, §2, §3, §4, §5, §6

HCC1569 = conditions: Homo sapiens, 72 h, HCC1569 (HER2−), 3 days
Experimental: as §1, §2, §3, §4, §5, §6

MDA-MB-175-VII = conditions: Homo sapiens, 72 h, MDA-MB-175-VII (HER2−), 3 days
Experimental: as §1, §2, §3, §4, §5, §6

[1] = read-out: Single agent IC50, Compound A
[2] = read-out: Single agent IC50, Compound B

IC50 (ZR-75-1; [1]): > 1000 nM
IC50 (HCC1954; [1]): 1020 ± 839 nM
IC50 (BT474-J4; [1]): > 1000 nM
IC50 (SUM52; [1]): 9 ± 5 nM
IC50 (JIMT-1; [1]): > 1000 nM
IC50 (UACC893; [1]): > 1000 nM
IC50 (HCC202; [1]): > 1000 nM
IC50 (HCC1419; [1]): > 1000 nM
IC50 (HCC2218; [1]): > 1000 nM
IC50 (SK-BR-3; [1]): > 1000 nM
IC50 (KPL1; [1]): > 1000 nM
IC50 (HCC1569; [1]): > 1000 nM
IC50 (MDA-MB-175-VII; [1]): 99 ± 97 nM
Structure (SMILES): CC(=O)Nc1cccc(-n2c(=O)n(C3CC3)c(=O)c3c(Nc4ccc(I)cc4F)n(C)c(=O)c(C)c32)c1 [Compound A, N-{3-[3-cyclopropyl-5-[(2-fluoro-4-iodophenyl)amino]-6,8-dimethyl-2,4,7-trioxo-3,4,6,7-tetrahydropyrido[4,3-d]pyrimidin-1(2H)-yl]phenyl}acetamide]

IC50 (ZR-75-1; [2]): 6 ± 1 nM
IC50 (HCC1954; [2]): 11 ± 3 nM
IC50 (BT474-J4; [2]): 14 ± 8 nM
IC50 (SUM52; [2]): 4 nM
IC50 (JIMT-1; [2]): 28 ± 5 nM
IC50 (UACC893; [2]): 3 ± 3 nM
IC50 (HCC202; [2]): 45 ± 4 nM
IC50 (HCC1419; [2]): 24 ± 14 nM
IC50 (HCC2218; [2]): 18 ± 13 nM
IC50 (SK-BR-3; [2]): 24 ± 20 nM
IC50 (KPL1; [2]): 8 ± 4 nM
IC50 (HCC1569; [2]): 76 ± 42 nM
IC50 (MDA-MB-175-VII; [2]): 7 ± 1 nM
Structure (SMILES): COc1ncc(-c2ccc3nccc(-c4ccnnc4)c3c2)cc1NS(=O)(=O)c1ccc(F)cc1F [Compound B, 2,4-difluoro-N-{2-(methyloxy)-5-[4-(4-pyridazinyl)-6-quinolinyl]-3-pyridinyl}benzenesulfonamide]
